What all share (type): cell-based
Experiment [1] concerns the target T1, human TLR7 (Homo sapiens, UniProt Q9NYK1).
T1 construct: host or cells: HEK-Blue cells (HEK293-derived reporter line)
T1 sequence (Q9NYK1 27-1049): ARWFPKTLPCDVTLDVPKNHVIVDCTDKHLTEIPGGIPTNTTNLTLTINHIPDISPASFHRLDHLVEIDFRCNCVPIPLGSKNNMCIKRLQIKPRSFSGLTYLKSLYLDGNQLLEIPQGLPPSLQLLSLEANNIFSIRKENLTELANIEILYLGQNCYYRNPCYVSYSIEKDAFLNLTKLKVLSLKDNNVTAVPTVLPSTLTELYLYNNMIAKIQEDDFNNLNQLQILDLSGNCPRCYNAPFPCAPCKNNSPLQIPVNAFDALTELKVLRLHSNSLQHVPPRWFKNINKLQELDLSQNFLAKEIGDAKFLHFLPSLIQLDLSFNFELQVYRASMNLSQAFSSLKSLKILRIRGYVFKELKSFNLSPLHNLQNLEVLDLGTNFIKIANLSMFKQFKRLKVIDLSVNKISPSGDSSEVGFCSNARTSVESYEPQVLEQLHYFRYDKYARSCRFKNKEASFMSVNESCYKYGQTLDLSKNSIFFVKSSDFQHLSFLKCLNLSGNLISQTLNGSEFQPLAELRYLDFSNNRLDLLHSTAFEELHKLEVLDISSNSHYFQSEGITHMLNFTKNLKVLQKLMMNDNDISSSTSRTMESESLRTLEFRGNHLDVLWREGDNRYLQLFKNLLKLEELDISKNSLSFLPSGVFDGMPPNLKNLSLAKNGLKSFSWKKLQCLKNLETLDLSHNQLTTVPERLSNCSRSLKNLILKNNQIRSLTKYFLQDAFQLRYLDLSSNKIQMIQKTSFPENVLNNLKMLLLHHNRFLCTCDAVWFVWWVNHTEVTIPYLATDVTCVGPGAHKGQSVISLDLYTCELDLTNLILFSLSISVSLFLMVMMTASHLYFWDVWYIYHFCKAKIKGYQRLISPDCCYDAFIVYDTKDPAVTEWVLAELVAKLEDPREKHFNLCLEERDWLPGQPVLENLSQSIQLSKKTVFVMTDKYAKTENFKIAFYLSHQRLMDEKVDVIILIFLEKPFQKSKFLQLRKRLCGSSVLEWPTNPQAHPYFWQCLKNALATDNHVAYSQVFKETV
Briefly: TLR7 inhibition reporter assay (HEK-Blue cells, SEAP reporter, gardiquimod stimulation). As to conditions: HEK-Blue cells overexpressing human TLR7, SEAP reporter, gardiquimod 7.5 μM. In short, it runs like this: (§1)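 After 22 h at 37 °C, SEAP secretion was measured from human TLR7-, TLR8- or TLR9-expressing HEK-Blue reporter cells given compound (0.05 nM–50 μM) 30 min before agonist: 7.5 μM gardiquimod, 15.9 μM R848 or 5 nM ODN2006 respectively. Percent inhibition referenced to agonist-plus-DMSO and known-inhibitor wells.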

The target of experiment [2] is T2, human TLR9 (Homo sapiens, UniProt Q9NR96).
T2 construct: host or cells: HEK-Blue cells (HEK293-derived reporter line)
T2 sequence (Q9NR96 26-1032): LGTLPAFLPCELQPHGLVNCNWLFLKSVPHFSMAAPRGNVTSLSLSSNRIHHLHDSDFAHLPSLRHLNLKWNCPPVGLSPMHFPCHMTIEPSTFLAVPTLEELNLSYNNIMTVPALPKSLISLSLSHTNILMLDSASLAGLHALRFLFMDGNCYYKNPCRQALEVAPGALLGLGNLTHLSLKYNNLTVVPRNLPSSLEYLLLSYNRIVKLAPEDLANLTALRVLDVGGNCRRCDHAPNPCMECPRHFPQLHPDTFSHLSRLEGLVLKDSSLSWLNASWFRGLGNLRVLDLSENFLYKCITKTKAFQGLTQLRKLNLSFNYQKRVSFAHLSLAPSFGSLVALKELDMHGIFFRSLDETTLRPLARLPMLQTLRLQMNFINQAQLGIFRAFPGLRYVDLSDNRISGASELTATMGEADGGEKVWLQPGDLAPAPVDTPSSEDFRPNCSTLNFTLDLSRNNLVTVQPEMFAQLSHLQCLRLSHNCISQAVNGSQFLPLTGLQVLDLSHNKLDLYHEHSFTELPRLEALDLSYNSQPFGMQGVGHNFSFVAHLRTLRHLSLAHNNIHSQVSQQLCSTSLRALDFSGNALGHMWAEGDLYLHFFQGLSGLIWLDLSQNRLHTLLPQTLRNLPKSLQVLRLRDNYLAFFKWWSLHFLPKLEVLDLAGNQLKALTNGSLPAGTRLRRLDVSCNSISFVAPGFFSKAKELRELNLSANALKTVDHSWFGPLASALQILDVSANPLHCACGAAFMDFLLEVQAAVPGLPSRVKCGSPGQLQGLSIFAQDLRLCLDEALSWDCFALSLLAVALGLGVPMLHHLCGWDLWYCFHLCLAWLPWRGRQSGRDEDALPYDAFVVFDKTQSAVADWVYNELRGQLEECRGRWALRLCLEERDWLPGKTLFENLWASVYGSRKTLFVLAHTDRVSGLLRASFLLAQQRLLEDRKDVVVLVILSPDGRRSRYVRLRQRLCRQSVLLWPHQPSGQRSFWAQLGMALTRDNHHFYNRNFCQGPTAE
Briefly: TLR9 inhibition reporter assay (HEK-Blue cells, SEAP reporter, ODN2006 stimulation). To be noted: HEK-Blue cells overexpressing human TLR9, SEAP reporter, ODN2006 5 nM. In short, it runs like this:
as §1
(In general: A reporter such as luciferase makes a cellular process visible.)

The target in experiment [3] is T3, human TLR8 (Homo sapiens, UniProt Q9NR97).
T3 construct: host or cells: HEK-Blue cells (HEK293-derived reporter line)
T3 sequence (Q9NR97 27-1041): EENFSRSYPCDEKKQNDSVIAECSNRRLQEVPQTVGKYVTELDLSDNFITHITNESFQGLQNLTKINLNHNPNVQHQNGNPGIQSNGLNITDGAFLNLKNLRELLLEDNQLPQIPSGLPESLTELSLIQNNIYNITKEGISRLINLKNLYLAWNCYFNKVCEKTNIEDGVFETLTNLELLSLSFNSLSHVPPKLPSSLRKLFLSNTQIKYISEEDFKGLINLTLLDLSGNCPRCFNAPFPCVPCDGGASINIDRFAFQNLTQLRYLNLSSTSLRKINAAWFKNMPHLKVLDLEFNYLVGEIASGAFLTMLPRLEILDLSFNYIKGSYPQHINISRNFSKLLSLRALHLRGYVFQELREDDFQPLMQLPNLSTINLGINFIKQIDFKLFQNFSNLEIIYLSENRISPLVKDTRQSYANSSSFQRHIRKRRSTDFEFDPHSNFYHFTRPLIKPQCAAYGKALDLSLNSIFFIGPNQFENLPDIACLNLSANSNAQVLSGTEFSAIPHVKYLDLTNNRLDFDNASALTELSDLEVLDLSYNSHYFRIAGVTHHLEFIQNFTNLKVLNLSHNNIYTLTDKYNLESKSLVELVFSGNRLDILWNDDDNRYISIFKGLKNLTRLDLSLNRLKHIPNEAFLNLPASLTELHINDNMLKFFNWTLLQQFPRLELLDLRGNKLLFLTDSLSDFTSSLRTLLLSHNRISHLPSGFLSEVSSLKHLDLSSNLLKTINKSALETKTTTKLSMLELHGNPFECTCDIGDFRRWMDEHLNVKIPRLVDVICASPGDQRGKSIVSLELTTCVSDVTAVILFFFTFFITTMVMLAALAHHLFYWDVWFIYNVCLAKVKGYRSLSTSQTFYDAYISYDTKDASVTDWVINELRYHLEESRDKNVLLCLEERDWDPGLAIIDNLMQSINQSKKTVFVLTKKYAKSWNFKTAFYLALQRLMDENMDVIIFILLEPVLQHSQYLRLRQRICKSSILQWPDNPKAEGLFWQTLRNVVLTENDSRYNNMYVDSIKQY
Briefly: TLR8 inhibition reporter assay (HEK-Blue cells, SEAP reporter, R848 stimulation). To be noted: HEK-Blue cells overexpressing human TLR8, SEAP reporter, R848 15.9 μM. In short, it runs like this:
as §1

Data on 10 molecules can be found in patent publication US11739098B2 (BRISTOL-MYERS SQUIBB COMPANY, priority 2017, dated 2023).

The IC50 is the midpoint of a concentration-inhibition curve.

Turning to `CC(C)c1c(-c2cnc3ncnn3c2)[nH]c2ccc(C3CCN(C(=O)CN(C)C)CC3)cc12` [Example 554, 1-(4-(2-([1,2,4]triazolo[1,5-a]pyrimidin-6-yl)-3-isopropyl-1H-indol-5-yl)piperidin-1-yl)-2-(dimethylamino)ethan-1-one], the values for the IC50 in experiment [1], in experiment [2] and in experiment [3] were less than 100 nM, 1000 to 50000 nM and 100 to 1000 nM, respectively.

For `CNCC(=O)N1CCC(c2ccc3[nH]c(-c4cc(C)c5ncccc5c4)c(C(C)C)c3c2)CC1` [Example 560, 1-(4-(3-isopropyl-2-(8-methylquinolin-6-yl)-1H-indol-5-yl)piperidin-1-yl)-2-(methylamino)ethan-1-one], the IC50 in experiment [1] was less than 100 nM; in experiment [2] it was 1000 to 50000 nM; in experiment [3], less than 100 nM.

With `Cc1cc2cc(-c3[nH]c4ccc(C5CCN(CC(=O)N(C)C)CC5)cc4c3C(C)C)cc(C)n2n1` [Example 420, 2-(4-(2-(2,7-dimethylpyrazolo[1,5-a]pyridin-5-yl)-3-isopropyl-1H-indol-5-yl)piperidin-1-yl)-N,N-dimethylacetamide], the figures for the IC50 in experiment [1], in experiment [2] and in experiment [3] were less than 100 nM, 1000 to 50000 nM and less than 100 nM, respectively.

For the molecule `Cc1nnn2ccc(-c3[nH]c4ccc(C5CCN(C6CCOCC6)CC5)cc4c3C(C)C)cc12` [Example 700, 5-(3-isopropyl-5-(1-(tetrahydro-2H-pyran-4-yl)piperidin-4-yl)-1H-indol-2-yl)-3-methyl-[1,2,3]triazolo[1,5-a]pyridine], the IC50 is less than 100 nM in experiment [1], 100 to 1000 nM in experiment [2] and less than 100 nM in experiment [3].

Take `CCN(C)CCC(=O)N1CCC(c2ccc3[nH]c(-c4cc(C)c5nnnn5c4)c(C(C)C)c3c2)CC1` [Example 625, 3-(ethyl(methyl)amino)-1-(4-(3-isopropyl-2-(8-methyltetrazolo[1,5-a]pyridin-6-yl)-1H-indol-5-yl)piperidin-1-yl)propan-1-one]: the values for the IC50 in experiment [1], in experiment [2] and in experiment [3] were less than 100 nM, 1000 to 50000 nM and less than 100 nM, respectively.

`Cc1nnn2ccc(-c3[nH]c4ccc(C5CCN(CCS(C)(=O)=O)CC5)cc4c3C(C)C)cc12` [Example 793, 5-(3-isopropyl-5-(1-(2-(methylsulfonyl)ethyl)piperidin-4-yl)-1H-indol-2-yl)-3-methyl-[1,2,3]triazolo[1,5-a]pyridine]: the values for the IC50 in experiment [1], in experiment [2] and in experiment [3] were less than 100 nM, 1000 to 50000 nM and less than 100 nM, respectively.

Consider `OCc1c(-c2ccnc3[nH]ncc23)[nH]c2ccc(C3CCNCC3)cc12` [Example 176, (5-(piperidin-4-yl)-2-(1H-pyrazolo[3,4-b]pyridin-4-yl)-1H-indol-3-yl)methanol], for which the IC50 in experiment [1], in experiment [2] and in experiment [3] was 1000 to 50000 nM in each case.

With `Cc1cn2cc(-c3[nH]c4ccc(C5CCNCC5)cc4c3C(C)C)cc(F)c2n1` [Example 126, 8-fluoro-6-(3-isopropyl-5-(piperidin-4-yl)-1H-indol-2-yl)-2-methylimidazo[1,2-a]pyridine], the IC50 in experiment [1] is less than 100 nM; in experiment [2] it was 100 to 1000 nM; in experiment [3], 100 to 1000 nM.

With `CC(C)c1c(-c2cc(F)c3nccn3c2)[nH]c2ccc(C3CCN(C(=O)C[C@@H](C)O)CC3)cc12` [Example 605, (R)-1-(4-(2-(8-fluoroimidazo[1,2-a]pyridin-6-yl)-3-isopropyl-1H-indol-5-yl)piperidin-1-yl)-3-hydroxybutan-1-one], the figures for the IC50 in experiment [1], in experiment [2] and in experiment [3] were less than 100 nM, more than 50000 nM and 1000 to 50000 nM, respectively.

On to `CCc1c(-c2ccnc3[nH]ncc23)[nH]c2ccc(C3CCN(C4CCN(C(C)C)CC4)CC3)cc12` [Example 824, 4-(3-ethyl-5-(1′-isopropyl-[1,4′-bipiperidin]-4-yl)-1H-indol-2-yl)-1H-pyrazolo[3,4-b]pyridine], for which the IC50 in experiment [1], in experiment [2] and in experiment [3] was less than 100 nM throughout.
